# Results taken from PubChem BioAssay AID2060902 (Molecular Pharmacology Branch, DTP, NCI, 2025).
# Test system: 485368-065-R3-J5-PDC spheroids with HUVEC/MSC, viability
# Test: Anticancer human tumor 485368-065-R3-J5-PDC patient-derived pancreatic carcinoma cell line growth inhibition [RAS]
# Details: for IC50: curve of first compound; for viability, T/C: stronger effect = lower value
# Summary of the method: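 Multi-cell-type spheroids: tumor cells plus HUVEC endothelial cells and mesenchymal stem cells. RAS-pathway inhibitors were combined with targeted agents, each dosed in half-log steps down from clinical Cmax, or from 10 microM when Cmax was unknown.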
# [1] = second compound 0.00316 µM, first compound 0.0316 µM
# [2] = second compound 0.00316 µM, first compound 0.1 µM
# [3] = second compound 0.01 µM, first compound 0.0316 µM
# [4] = second compound 0.01 µM, first compound 0.1 µM
# [5] = second compound 0.0316 µM, first compound 0.0316 µM
# [6] = second compound 0.0316 µM, first compound 0.1 µM
# [7] = second compound 0.1 µM, first compound 0.0316 µM
# [8] = second compound 0.1 µM, first compound 0.1 µM
# [9] = second compound 0.316 µM, first compound 0.0316 µM
# [10] = second compound 0.316 µM, first compound 0.1 µM
# [11] = second compound 1 µM, first compound 0.0316 µM
# [12] = second compound 1 µM, first compound 0.1 µM
# 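Further: spheroids exposed to agents for seven days before readout.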
smiles,measurement,setting,value
CC(C)n1nc(-c2ccc3oc(N)nc3c2)c2c(N)ncnc21 + C=CC(=O)N1CCN(c2nc(OCC3CCCN3C)nc3c(F)c(-c4nc(N)cc(C)c4C(F)(F)F)c(Cl)cc23)C(C)C1,IC50,second compound 0.00316 µM,14 nM
same,IC50,second compound 0.01 µM,14.6 nM
same,IC50,second compound 0.0316 µM,16.9 nM
same,IC50,second compound 0.1 µM,19.6 nM
same,IC50,second compound 0.316 µM,16.9 nM
same,IC50,second compound 1 µM,21.7 nM
same,"viability, T/C","second compound 0.00316 µM, first compound 0.000316 µM",106%
same,"viability, T/C","second compound 0.00316 µM, first compound 0.001 µM",99.4%
same,"viability, T/C","second compound 0.00316 µM, first compound 0.00316 µM",77.1%
same,"viability, T/C","second compound 0.00316 µM, first compound 0.01 µM",56%
same,"viability, T/C",[1],35.6%
same,"viability, T/C",[2],16.1%
same,"viability, T/C","second compound 0.01 µM, first compound 0.000316 µM",104%
same,"viability, T/C","second compound 0.01 µM, first compound 0.001 µM",90.4%
same,"viability, T/C","second compound 0.01 µM, first compound 0.00316 µM",81.4%
same,"viability, T/C","second compound 0.01 µM, first compound 0.01 µM",53.6%
same,"viability, T/C",[3],37.2%
same,"viability, T/C",[4],15.3%
same,"viability, T/C","second compound 0.0316 µM, first compound 0.000316 µM",97.2%
same,"viability, T/C","second compound 0.0316 µM, first compound 0.001 µM",95.8%
same,"viability, T/C","second compound 0.0316 µM, first compound 0.00316 µM",84.7%
same,"viability, T/C","second compound 0.0316 µM, first compound 0.01 µM",60.9%
same,"viability, T/C",[5],36.5%
same,"viability, T/C",[6],16.6%
same,"viability, T/C","second compound 0.1 µM, first compound 0.000316 µM",105%
same,"viability, T/C","second compound 0.1 µM, first compound 0.001 µM",90.9%
same,"viability, T/C","second compound 0.1 µM, first compound 0.00316 µM",96.3%
same,"viability, T/C","second compound 0.1 µM, first compound 0.01 µM",73.9%
same,"viability, T/C",[7],32.8%
same,"viability, T/C",[8],15.8%
same,"viability, T/C","second compound 0.316 µM, first compound 0.000316 µM",105%
same,"viability, T/C","second compound 0.316 µM, first compound 0.001 µM",99.8%
same,"viability, T/C","second compound 0.316 µM, first compound 0.00316 µM",83.3%
same,"viability, T/C","second compound 0.316 µM, first compound 0.01 µM",60.1%
same,"viability, T/C",[9],38%
same,"viability, T/C",[10],19.6%
same,"viability, T/C","second compound 1 µM, first compound 0.000316 µM",100%
same,"viability, T/C","second compound 1 µM, first compound 0.001 µM",87.8%
same,"viability, T/C","second compound 1 µM, first compound 0.00316 µM",84.1%
same,"viability, T/C","second compound 1 µM, first compound 0.01 µM",67%
same,"viability, T/C",[11],41%
same,"viability, T/C",[12],16.1%
CC1(O)CCCC1n1c(=O)c(C(F)F)cc2cnc(NC3CCN(S(C)(=O)=O)CC3)nc21 (centres undefined) + C=CC(=O)N1CCN(c2nc(OCC3CCCN3C)nc3c(F)c(-c4nc(N)cc(C)c4C(F)(F)F)c(Cl)cc23)C(C)C1,IC50,second compound 0.00316 µM,402 nM
same,IC50,second compound 0.01 µM,314 nM
same,IC50,second compound 0.0316 µM,298 nM
same,IC50,second compound 0.1 µM,258 nM
same,IC50,second compound 0.316 µM,429 nM
same,IC50,second compound 1 µM,750 nM
same,"viability, T/C",[1],109%
same,"viability, T/C",[2],68.7%
same,"viability, T/C","second compound 0.00316 µM, first compound 0.316 µM",46.7%
same,"viability, T/C","second compound 0.00316 µM, first compound 1 µM",48.2%
same,"viability, T/C","second compound 0.00316 µM, first compound 3.16 µM",40.6%
same,"viability, T/C","second compound 0.00316 µM, first compound 10 µM",11.1%
same,"viability, T/C",[3],107%
same,"viability, T/C",[4],69.5%
same,"viability, T/C","second compound 0.01 µM, first compound 0.316 µM",45.3%
same,"viability, T/C","second compound 0.01 µM, first compound 1 µM",38.8%
same,"viability, T/C","second compound 0.01 µM, first compound 3.16 µM",42.1%
same,"viability, T/C","second compound 0.01 µM, first compound 10 µM",12.6%
same,"viability, T/C",[5],99.3%
same,"viability, T/C",[6],62.2%
same,"viability, T/C","second compound 0.0316 µM, first compound 0.316 µM",44.4%
same,"viability, T/C","second compound 0.0316 µM, first compound 1 µM",42.2%
same,"viability, T/C","second compound 0.0316 µM, first compound 3.16 µM",45.9%
same,"viability, T/C","second compound 0.0316 µM, first compound 10 µM",11.3%
same,"viability, T/C",[7],93.9%
same,"viability, T/C",[8],62.8%
same,"viability, T/C","second compound 0.1 µM, first compound 0.316 µM",38.3%
same,"viability, T/C","second compound 0.1 µM, first compound 1 µM",41.9%
same,"viability, T/C","second compound 0.1 µM, first compound 3.16 µM",47.6%
same,"viability, T/C","second compound 0.1 µM, first compound 10 µM",10.6%
same,"viability, T/C",[9],99.7%
same,"viability, T/C",[10],64.8%
same,"viability, T/C","second compound 0.316 µM, first compound 0.316 µM",51.8%
same,"viability, T/C","second compound 0.316 µM, first compound 1 µM",42%
same,"viability, T/C","second compound 0.316 µM, first compound 3.16 µM",43.4%
same,"viability, T/C","second compound 0.316 µM, first compound 10 µM",12.5%
same,"viability, T/C",[11],109%
same,"viability, T/C",[12],60%
same,"viability, T/C","second compound 1 µM, first compound 0.316 µM",41.3%
same,"viability, T/C","second compound 1 µM, first compound 1 µM",55.7%
same,"viability, T/C","second compound 1 µM, first compound 3.16 µM",44.9%
same,"viability, T/C","second compound 1 µM, first compound 10 µM",11.1%
